# Experimental data from patent US8637237B2, “Methods, compositions, and systems for the identification of species-specific or developmental stage-specific insecticides” (The University of North Carolina at Greensboro, priority 2003, dated 2014).
# Tested on: Drosophila melangaster EcR isoforms
# Assay: Drosophila melanogaster EcR isoforms, response to ecdysteroid agonists (FIG. 8)
# Type: cell-based
# Description: Unless noted otherwise, 100 ng of each EcR and USP plasmid was transfected into 2 ml of cell culture medium. As noted above, a reporter gene carrying five tandem copies of the hsp27 ecdysone response element (Riddihough and Pelham, 1986) is attached to a constitutive thymidine kinase promoter and a luciferase reporter gene (pEcREtk-LUC) and cotransfected into the cells along with vectors expressing EcR, USP, and a constitutively active β-galactosidase gene with lipofection, following manufacturer's protocols. The subsequent measure of luciferase activity reflects ecdysteroid-inducible transcription.
# The Drosophila EcR isoform vectors (A, B1, and B2) used for these experiments have been described previously (Mouillet et al, 2001). These vectors lack the F-domain, which is also not essential for in vivo function (Cherbas et al, 2003). Additionally, three different VP16-USP vectors were utilized. Construction is of the VP16-USP vectors is described below. As in the earlier study, hsp27-EcRE mediated transcriptional activity was measured by detecting the luminescence produced by luciferase in transfected cell extracts. Luciferase activity was normalized by transfection with a plasmid that constitutively expresses the β-galactosidase gene such that enzymatic activity correlated with cellular mass. […]
smiles,measurement,value
"CC(C)CC[C@@H](O)[C@](C)(O)[C@H]1CC[C@@]2(O)C3=CC(=O)[C@]4(O)C[C@@H](O)[C@@H](O)C[C@]4(C)[C@H]3[C@H](O)C[C@]12C [murA, muristerone A]","stimulation of Drosophila EcR isoforms, agonists compared","much greater stimulation by murA, than either 20E or RH 2485"
